# From patent US6114127A, “Methods of screening for agonists and antagonists of the HDPXU17 receptor” (SmithKline Beecham Corporation, priority 1998, dated 2000)
# Entries after “also recorded” stand apart in the source; their conditions may differ.
# Columns and labels:
# [1] = target: T1, HDPXU17 receptor (P2Y-like receptor) (Homo sapiens, UniProt Q96G91); test: Gs reporter gene luciferase assay, stable HDPXU17-expressing 293 cells (clone 20#) transiently transfected with MREIIVIPII plasmid; type: cell-based; conditions: for EC50: luciferase activity, stable HDPXU17-expressing 293 cells (clone 20#) transiently transfected with MREIIVIPII plasmid
# T1 construct: expressed in transfected cells; host or cells: HEK 293 cells stably expressing the MREIIVIPII luciferase reporter gene, transiently transfected with pCDN-HDPXU17 DNA (Lipofectamine)
# T1 sequence (Q96G91 1-374): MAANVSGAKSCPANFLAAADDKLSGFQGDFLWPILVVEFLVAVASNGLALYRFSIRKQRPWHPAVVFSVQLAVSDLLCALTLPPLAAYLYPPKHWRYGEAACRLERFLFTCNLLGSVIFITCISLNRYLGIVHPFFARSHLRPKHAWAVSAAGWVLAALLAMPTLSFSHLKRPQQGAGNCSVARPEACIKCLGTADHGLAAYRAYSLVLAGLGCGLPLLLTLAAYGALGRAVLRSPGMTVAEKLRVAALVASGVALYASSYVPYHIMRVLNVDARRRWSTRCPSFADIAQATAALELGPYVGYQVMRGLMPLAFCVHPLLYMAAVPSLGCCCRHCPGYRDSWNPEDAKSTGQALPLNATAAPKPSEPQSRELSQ
# Description: (§1) The Gs reporter gene luciferase assay for orphan G-protein coupled receptors has been developed using a recombinant construct MREIVIPII plasmid, which has been disclosed European Patent Application No. 0 863 214, published on Sep. 9, 1998. This assay utilizes a luciferase gene fused to three copies of multiple response elements (MREs), one copy of cAMP response element (CRE) and the basal promoter of the vasointestinal peptide (VIP) gene to specifically monitor protein kinase A activation that results from an increase in intracellular cAMP. The system is not sensitive to activation of protein kinase C pathways. Rather, it responds to increases in cAMP mediated by endogenous and recombinant Gs-coupled GPCR activation with up to 120-fold increases in luciferase activity.
# The assay begins when HEK 293 cells stably expressing the MREIIVIPII luciferase reporter gene were seeded at 4,500,000 per flask and incubated overnight at 37° C. The next day, solutions A (4 ug of pCDN-HDPXU17DNA was added to 0.8 ml EMEM without serum) and B (23.1 ul Lipofectamine was mixed in 0.8 ml EMEM without serum) were prepared, mixed together and incubated 30 min at room temperature. During the incubation, the culture medium was aspirated from cells and replaced with 12.5 ml serum-free EMEM. Next, the DNA and Lipofectamine mixture was added to the cells and incubated at 37° C. for 6 hours. After 6 hours, 13 ml of EMEM containing 10% FBS was added to the cells and incubated overnight at 37° C. The next day, the 96-well plates were pretreated with 1× Matrixgel solution at 50 ul/well for one hour. Then, the matrixgel solution and plate cells were aspirated at 2000-4000 cells/well. After overnight incubation at 37° C., 5-20 ul /well of the test compounds were added to the 96-well plates and incubated at 37° C. After 6 hours, the medium of each well was aspirated, 25 ul of 1×PBS without calcium and magnesium was added, the plates were frozen at -70° C. Then, the plates were allowed to thaw. Luc-lite solution (25 ul/well) was added and luciferase activity was measured by TopCount HTS. […]
# [2] = target: T1, HDPXU17 receptor (P2Y-like receptor); test: Gs reporter gene luciferase assay, HEK 293 cells stably expressing the luciferase reporter, transfected with HDPXU17 DNA; type: cell-based; conditions: for luciferase activity: concentration ranges from 3-300,000 nM, HDPXU17-transfected HEK 293 reporter cells, result in words; for EC50: luciferase activity, HEK 293 MREIIVIPII reporter cells transfected with HDPXU17, 3-300,000 nM
# Description: as §1
# The assay begins when HEK 293 cells stably expressing the MREIIVIPII luciferase reporter gene were seeded at 4,500,000 per flask and incubated overnight at 37° C. The next day, solutions A (4 ug of pCDN-HDPXU17DNA was added to 0.8 ml EMEM without serum) and B (23.1 ul Lipofectamine was mixed in 0.8 ml EMEM without serum) were prepared, mixed together and incubated 30 min at room temperature. During the incubation, the culture medium was aspirated from cells and replaced with 12.5 ml serum-free EMEM. Next, the DNA and Lipofectamine mixture was added to the cells and incubated at 37° C. for 6 hours. After 6 hours, 13 ml of EMEM containing 10% FBS was added to the cells and incubated overnight at 37° C. The next day, the 96-well plates were pretreated with 1× Matrixgel solution at 50 ul/well for one hour. Then, the matrixgel solution and plate cells were aspirated at 2000-4000 cells/well. After overnight incubation at 37° C., 5-20 ul /well of the test compounds were added to the 96-well plates and incubated at 37° C. After 6 hours, the medium of each well was aspirated, 25 ul of 1×PBS without calcium and magnesium was added, the plates were frozen at -70° C. Then, the plates were allowed to thaw. Luc-lite solution (25 ul/well) was added and luciferase activity was measured by TopCount HTS.
# In stable HDPXU17-expressing 293 cells(clone 20#) cells transiently transfected with MREIIVIPII plasmid, similar results are obtained.
Structure (SMILES),EC50 [1],best ligand for HDPXU 17 receptor ([2]; based on results in both transient and stable HDPXU17 cells),luciferase activity [2],EC50 [2],"luciferase activity ([1]; stable HDPXU17-expressing 293 cells (clone 20#), result in words)"
"Nc1ncnc2c1ncn2[C@H]1C[C@H](O)[C@@H](COP(=O)(O)OP(=O)(O)OP(=O)(O)O)O1 [dATP, deoxyadenosine triphosphate]",4.05 µM,appears to be the best ligand for HDPXU 17 receptor,increase luciferase activity only in cells transfected with the HDPXU17 receptor,17.3 µM,–
"O=c1ccn([C@@H]2O[C@H](COP(=O)(O)OP(=O)(O)OP(=O)(O)O)[C@@H](O)[C@H]2O)c(=O)[nH]1 [UTP, uridine triphosphate]",–,–,"increase luciferase activity only in cells transfected with the HDPXU17 receptor; also recorded: specific, but weak",–,"still weak, but specific"
Cc1cn([C@H]2C[C@H](O)[C@@H](COP(=O)(O)OP(=O)(O)OP(=O)(O)O)O2)c(=O)[nH]c1=O [dTTP],–,–,no effect on luciferase activity,–,–
Nc1ccn([C@H]2C[C@H](O)[C@@H](COP(=O)(O)OP(=O)(O)OP(=O)(O)O)O2)c(=O)n1 [dCTP],–,–,no effect on luciferase activity,–,–
Nc1nc2c(ncn2[C@H]2C[C@H](O)[C@@H](COP(=O)(O)OP(=O)(O)OP(=O)(O)O)O2)c(=O)[nH]1 [dGTP],–,–,no effect on luciferase activity,–,–
"Nc1ncnc2c1ncn2[C@H]1C[C@H](O)[C@@H](COP(=O)(O)O)O1 [dAMP, deoxyadenosine monophosphate]",200 µM,–,increase luciferase activity only in cells transfected with the HDPXU17 receptor,105 µM,–
